From publication PMC8548882, “The Trp-rich Antimicrobial Amphiphiles With Intramolecular Aromatic Interactions for the Treatment of Bacterial Infection” (Frontiers in Microbiology, 2021)
In brackets after ≈: the same amount, converted by molar mass. Read-outs that look alike come from different tables or passages of the source. Ends that are not written are not given here.

Experiments:
[1] = tested on: S.aureus 29213; type: cell-based, Staphylococcus aureus ATCC 29213
Text: (§1) The tested strains were kindly provided by the laboratory of Veterinary Microbiology and Immunology, the College of Veterinary Medicine, Northeast Agricultural University (gram-negative bacteria, Salmonella enterica serovar typhimurium C77-31, Salmonella typhimurium ATCC 14028, Escherichia coli ATCC 25922, Pseudomonas aeruginosa ATCC 27853 and gram-positive bacteria, Staphylococcus aureus ATCC 29213, Staphylococcus aureus ATCC 43300, Staphylococcus epidermidis ATCC 12228, Staphylococcus aureus ATCC 25923).
(§2) The famous microtiter dilution, National Committee for Clinical Laboratory Standards, was adopted to measure the antimicrobial ability of the engineering peptides ([Chou et al., 2016]). In brief, the 50μl with serial dilution was incubated with the same volume bacteria (1×10^5CFU/ml in midi-logarithmic phase) in a 96-well plate 18–24h at 37°C. The positive control was the bacteria treated with culture medium and the negative control was merely culture medium. The MICs (minimum inhibitory concentrations) were defined as the lowest concentration of peptides that prevented the production of visible turbidity ([Tossi et al., 2000]).

[2] = tested on: S.aureus 25923; type: cell-based, Staphylococcus aureus ATCC 25923
Text: as §1, §2

[3] = tested on: panel of gram-negative and gram-positive bacteria; conditions: over the eight strains of Table 2
Description: as §2

[4] = tested on: IPEC-J2 cells; type: cell-based, porcine; conditions: for Therapeutic index (TI): IPEC-J2, ratio of IC50 to GM
Description: (§3) The MTT (3-[4,5 dimethylthiozol-2-yl]-2,5-diphenylterazoliumbromide) dye was selected to analyze the cytotoxicity of peptides against the murine macrophage cell RAW 264.7 (National Collection of Authenticated Cell Cultures, Shanghai, China), human embryonic kidneys (HK293T), and the porcine intestinal epithelial cells (IPEC-J2) as in our previously study ([Li et al., 2020]). In short, the cells (10^4 cells/well) were seeded into 96-well plates and were cultivated overnight. Then the peptides with different final concentration (2μM, 4μM, 8μM, 16μM, 32μM, 64μM, and 128μM) were introduced into the plate and challenged with cells for 24h. After overnight incubation, the 50μl MTT (0.5mg/ml) was added into the cell cultures for 4h. Then the plate was centrifuged to discard the supernatants and obtain the formazan crystals. The DMSO (dimethyl sulfoxide) was employed as a solvent to dissolve the formazan crystals on the bottom of the plate and the optical density was read at 492nm with a microplate reader.

[5] = tested on: MRSA 43300; type: cell-based, Staphylococcus aureus ATCC 43300; conditions: microtiter dilution, 1×10^5CFU/ml, 18–24h at 37°C, visible turbidity
Text: as §1, §2

[6] = tested on: P.aeruginosa 27853; type: cell-based, Pseudomonas aeruginosa ATCC 27853
Text: as §1, §2

[7] = tested on: hRBC, IPEC-J2, HEK 293T, RAW264.7
Description: Besides, the therapeutic index of peptide in the mammalian eukaryotic cell (RAW 264.7, HEK 293T, and IPEC J2) was also calculated to study the biocompatibility of peptides.

[8] = tested on: Pseudomonas aeruginosa ATCC 27853; assay: Subcutaneous abscess model; conditions: 5mg/kg
[9] = tested on: human red blood cells (hRBCs); assay: Hemolytic activity; type: cell-based; conditions: for HC5 (MHC), lowest concentration that caused 5% hemolysis: hRBC in PBS pH 7.2, 1h at 37°C, absorbance 570nm, vs 0.1% Triton X-100, highest test concentration 128μM; for Therapeutic index (TI): hRBC, ratio of MHC to GM
Text: The hemolytic activity of peptides was reflected by the releasing amount of hemoglobin from erythrocytes lysis induced by peptides ([Dong et al., 2014a]). The informed consent was obtained from the volunteers (3 healthy 25-year-old male volunteers) before the experiment. In brief, the human red blood cells (hRBCs), donated by volunteer, were collected, washed, and resuspended in PBS at pH 7.2. The peptides were serially diluted in PBS at different concentrations in a 96-well cell cultures plate and incubated with 50μl hRBCs for 1h at 37°C. The 0.1% Trition X-100 was selected as the treatment of positive control and the negative control was the hRBCs treated with PBS. After 1h incubation, the supernatant, obtained by centrifuging the plate 1,000g for 5min, was transferred to a brand-new plate for absorbance detection at 570nm. The releasing amount of hemoglobin was converted to the percent hemolysis against to 0.1% Triton X-100 treatment. The lowest concentration caused 5% hemolysis of hRBCs and was defined as the lowest hemolytic concentration of antimicrobial peptide.

[10] = tested on: HEK 293T cells; type: cell-based, human; conditions: ratio of IC50 to GM
Description: as §3

[11] = tested on: S.epidermidis 12228; type: cell-based, Staphylococcus epidermidis ATCC 12228
Text: as §1

[12] = tested on: S.typhimurium 7731; type: cell-based, Salmonella enterica serovar typhimurium C77-31
Text: as §1

[13] = tested on: RAW 264.7 cells; type: cell-based, murine; conditions: RAW264.7; ratio of IC50 to GM
Description: as §3

[14] = tested on: S.typhimurium 14028; type: cell-based, Salmonella typhimurium ATCC 14028
Text: as §1

[15] = tested on: E. coli 25922; type: cell-based, Escherichia coli ATCC 25922
Text: as §1

[16] = microtiter dilution, 1×10^5CFU/ml, 18–24h at 37°C, visible turbidity

| Compound | GMMIC, geometric mean of the MICs [3] | MIC [5] | HC5 (MHC), lowest concentration that caused 5% hemolysis [9] | Therapeutic index (TI) [9] | Therapeutic index (TI) [10] | MIC [1]; 29213 | MIC [2]; 25923 | MIC [11] | MIC [12] | Therapeutic index (TI) [13] | MIC [14] | Therapeutic index (TI) [4] | MIC [15] | MIC [6]; 27853 | GMTI, geometric mean of TI of various cell lines [7] | also measured |
| --- | --- | --- | --- | --- | --- | --- | --- | --- | --- | --- | --- | --- | --- | --- | --- | --- |
| CC[C@H](C)[C@H](NC(=O)CN)C(=O)NCC(=O)N[C@@H](C)C(=O)N[C@H](C(=O)N[C@@H](CC(C)C)C(=O)N[C@@H](CCCCN)C(=O)N[C@H](C(=O)N[C@@H](CC(C)C)C(=O)N[C@H](C(=O)N[C@H](C(=O)NCC(=O)N[C@@H](CC(C)C)C(=O)N1CCC[C@H]1C(=O)N[C@@H](C)C(=O)N[C@@H](CC(C)C)C(=O)N[C@H](C(=O)N[C@@H](CO)C(=O)N[C@@H](Cc1c[nH]c2ccccc12)C(=O)N[C@H](C(=O)N[C@@H](CCCCN)C(=O)N[C@@H](CCCNC(=N)N)C(=O)N[C@@H](CCCCN)C(=O)N[C@@H](CCCNC(=N)N)C(=O)N[C@@H](CCC(N)=O)C(=O)N[C@@H](CCC(N)=O)C(N)=O)[C@@H](C)CC)[C@@H](C)CC)[C@@H](C)O)[C@@H](C)O)C(C)C)C(C)C [Melittin, reference compound] | 1.68 µM | 4 µM (≈ 11.4 µg/mL) | – | – | – | – | – | – | – | – | – | – | – | – | – | MIC [1, 16]: 4 µM (≈ 11.4 µg/mL); MIC [2, 16]: 2 µM (≈ 5.69 µg/mL); cell viability ([4]; IPEC J2, MTT, 24h, 32μM): below 5%; IC50 ([4]; IPEC-J2, MTT, 24h, tested 2–128μM): 3.34 µM; MIC [6, 16]: 2 µM (≈ 5.69 µg/mL); GMTI, geometric mean of TI of various cell lines ([7]; hRBC, IPEC-J2, HEK 293T, RAW264.7): 1.71 |
| O=C(O)c1cn(C2CC2)c2cc(N3CCNCC3)c(F)cc2c1=O [ciprofloxacin, reference compound] | – | – | – | – | – | – | – | – | – | – | – | – | – | – | – | IL-1β in serum ([8]; Day 3, ELISA, saline 95.99±4.31): 72.18 ± 3.54 pg/mL; IL-1α in serum ([8]; Day 3, ELISA, saline 99.95±4.71): 80.08 ± 4.04 pg/mL; TNF-α in serum ([8]; Day 3, ELISA, saline 1020.654±51.08): 773.35 ± 40.55 pg/mL; IL-2 in serum ([8]; Day 3, ELISA, saline 1492.65±48.11): 1250.826 ± 43.60 pg/mL; histological examination of abscess lesion, dermal tissue structures ([8]; HE staining, Day 3): relative integrity |
| VKKLVKKLVKKAVKKA-NH2 [VL2] | 117.38 µM | >64 µM | >128 µM | >1.09 | 71.65 | >64 µM | >64 µM | >64 µM | >64 µM | 64.03 | >64 µM | 87.76 | >64 µM | 64 µM | >25.74 | – |
| VKKLVKKLVKKAVKKL-NH2 [VL4] | – | – | – | – | – | 16 µM | 16 µM | 32 µM | 16 µM | – | 32 µM | – | 16 µM | 8 µM | >104.47 | – |
| VKKLVKKLVKKLVKKA-NH2 [VL3] | – | – | – | – | – | 16 µM | 32 µM | 32 µM | 32 µM | – | 32 µM | – | 16 µM | 8 µM | >122.44 | – |
| VKKLVKKLVKKLVKKL-NH2 [VL5] | 4.76 µM | 8 µM | >128 µM | > 26.89 | 1574.26 | 8 µM | 8 µM | 4 µM | 2 µM | 404.20 | 4 µM | 957.83 | 8 µM | 2 µM | >357.80 | TI (hRBC) fold smaller than VW5 [9]: about 2.8 fold |
| VKKWVKKAVKKWVKKA-NH2 [VW1] | 76.11 µM | >64 µM | >128 µM | > 1.68 | 86.82 | 64 µM | >64 µM | 64 µM | >64 µM | 87.91 | 64 µM | 120.77 | 64 µM | 32 µM | >35.28 | – |
| VKKWVKKWVKKAVKKA-NH2 [VW2] | 41.50 µM | 64 µM | >128 µM | > 3.08 | 144.05 | 64 µM | 64 µM | 64 µM | 64 µM | 136.50 | 64 µM | 136.45 | 8 µM | 8 µM | >53.63 | – |
| VKKWVKKWVKKAVKKW-NH2 [VW3] | 7.34 µM | 8 µM | >128 µM | > 17.44 | 1449.42 | 16 µM | 8 µM | 8 µM | 8 µM | 647.10 | 8 µM | 646.97 | 4 µM | 4 µM | >320.73 | – |
